Measured values published in publication PMC2746312, “A High-Throughput Approach for Identification of Novel General Anesthetics” (PLoS ONE, 2009).
“Also recorded” adds a separate entry of the source. Structures can show the parent of a compound that is named as a salt. Where two headings read alike, the source gives them in different places.

Tests used:
horse spleen apoferritin = biological target: T1, horse spleen apoferritin (Equus caballus, UniProt P02791); test: 1-AMA/apoferritin fluorescence competition assay, qHTS in 1,536-well format; type: binding; settings: for inhibition at 77 µM: read-out: inhibition at maximal concentrations in qHTS
T1 sequence (P02791 2-175 limits assumed): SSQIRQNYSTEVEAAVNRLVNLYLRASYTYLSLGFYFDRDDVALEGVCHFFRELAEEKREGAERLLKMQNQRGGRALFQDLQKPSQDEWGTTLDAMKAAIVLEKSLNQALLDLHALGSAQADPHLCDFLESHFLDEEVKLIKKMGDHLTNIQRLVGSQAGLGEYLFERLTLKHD
Procedure: The previously-reported apoferritin-1-AMA binding assay was miniaturized to 3 µL in 1,536-well plates.
Throughout the screen, reagent bottles and all liquid lines were made light-tight to minimize reagent degradation. Activity was computed as the normalized fluorescence response relative to free 1-AMA and 1-AMA/apoferritin complex values. Concentration–effect relationships were derived by using publicly-available curve-fitting algorithms developed in-house (http://ncgc.nih.gov/pub/openhts/). A four parameter Hill equation was fitted to the concentration-response data by minimizing the residual error between the modeled and observed responses.

apoferritin = biological target: T2, apoferritin (Equus caballus, UniProt P02791); test: Isothermal titration calorimetry (ITC) of compound into apoferritin; settings: for ITC evidence of binding (in words): enthalpogram
T2 sequence (P02791 2-175 limits assumed): T1 sequence (P02791 2-175 limits assumed)

[1] = computed directly from 1-AMA inhibition data, infinite value fixed to -70%, seven concentrations 77 µM to 25 nM, read-out: qHTS IC50

| Structure (SMILES) | IC50 (horse spleen apoferritin; [1]) [µM] | Kd (apoferritin) [µM] | also measured |
| --- | --- | --- | --- |
| CC(N)c1cccc(Cl)c1Cl (racemic) [D-103, (±)-2,3-Dichloro-alpha-methylbenzylamine hydrochloride] | 94 | 506 | – |
| CCOC(=O)C(C)(C)Oc1ccc(Cl)cc1 [C-6643, Clofibrate] | 105 | 11.5 | – |
| O=c1oc(Cl)c(Cl)c2ccccc12 [D-7910, 3,4-Dichloroisocoumarin] | 129 | – | – |
| CC(C)c1cccc(C(C)C)c1O [D-126608, 2,6-diisopropylphenol (propofol)] | – | 5 | IC50 (horse spleen apoferritin): 67 µM; qHTS screen outcome (in words) (horse spleen apoferritin; LOPAC1280 screen with filters): successfully identified in this screen |
| CC1(C)CCC2=C(O1)c1ccccc1C(=O)C2=O [L-2037, β-Lapachone] | 33 | – | – |
| c1ccc([C@H]2CN3CCSC3=N2)cc1 [L-9756, (-)-Tetramisole hydrochloride] | 194 | 233 | – |
| C#CCN(C)C(C)Cc1ccccc1 (stereo not drawn) [M-003, R-(-)-Deprenyl hydrochloride] | – | 74 | IC50 (horse spleen apoferritin): 100 µM |
| Cc1cccc(C#Cc2ccccc2)n1 [M-5435, 6-Methyl-2-(phenylethynyl)pyridine] | 152 | 313 | – |
| CN(N=O)c1ccc(O)c(O)c1 [M-9440, Methyl-3,4-dephostatin] | – | 284 | IC50 (horse spleen apoferritin): 155 µM |
| O=Nc1ccc2oc(=O)ccc2c1 [N-8403, 6-Nitroso-1,2-benopyrone] | 107 | 37.9 | – |
| C=C1C(=O)O[C@H]2[C@H]1CC/C(C)=C/CC[C@@]1(C)O[C@@H]21 [P-0667, Parthenolide] | 68 | 35.9 | – |
| COc1ccc2c(c1)/C(=C/c1cnc[nH]1)C(=O)N2 [S-1693, SU 9516] | 88 | – | inhibition at 77 µM (horse spleen apoferritin): ~30%; ITC evidence of binding (in words) (apoferritin): failed to provide convincing evidence of binding |
| Oc1ccc(C2CNCc3sccc32)cc1O (stereo not drawn) [S-3066, SKF-89626 hydrobromide] | – | – | inhibition at 77 µM (horse spleen apoferritin): ~30%; ITC evidence of binding (in words) (apoferritin): does not; also recorded: failed to provide convincing evidence of binding |
| Cc1ccc(O)c(/N=N/c2ccccc2)n1 [S-9186, SIB 1757] | 42 | – | – |
| CCSC(=N)Nc1ccc(C(F)(F)F)cc1 [T7188, TFPI hydrochloride] | 98 | 25.3 | – |
| N#C/C(=C\c1ccc(O)c(O)c1)C(N)=S [T-7540, Tyrphostin 47] | 219 | 189 | – |
| S=C([S-])OC1CC2CC1C1CCCC21.[K+] (stereo not drawn) [T-8543, O-Tricyclo[5.2.1.0^2,6]dec-9-yl dithiocarbonate potassium salt] | 16 | 12.3 | ITC evidence of binding (in words) (apoferritin): clear exothermic binding behavior |
| Cc1cc(C(C)(C)C)cc(C)c1CC1=NCCN1 [X-6000, Xylometazoline hydrochloride] | – | 177 | IC50 (horse spleen apoferritin): 167 µM |
